The first assay addresses Gag-Pol polyprotein (Human immunodeficiency virus type 1 group M subtype B (isolate HXB2)) (UniProt P04585). The experiment in a line: concentration-response of HIV-1 RNase H blockers – biochemical, probe assessment, dose response (AID 652). The following applies: HIV-1 RT RNase H enzymatic assay.
For the molecule `COc1ccc(C2C(C#N)=C(N)N3C(=C2C#N)Sc2ccccc23)cc1` (configuration not stated), the IC50 (as a rule, the midpoint of a concentration-inhibition curve) is 3.35 µM.
Regarding `S=C(c1ccc(-c2ccccc2Cl)o1)N1CCOCC1`, the IC50 was 0.926 µM.
Consider `O=C1CCCC(O)=C1C(C#Cc1ccccc1)C1=C(O)CCCC1=O`, for which the IC50 is 1.08 µM.
As to `C/C=C/CSc1nc2c(c(=O)[nH]c(=O)n2C)n1Cc1ccc(C)cc1`, the IC50 was 11.2 µM.
As to `C=CCSc1nc2c(cnn2-c2ccc(C)c(C)c2)c(=O)[nH]1`, the IC50 was 13.8 µM.
As to `COc1ccc(C(=S)N(C)C)cc1OC`, the IC50 is 3.61 µM.
Regarding `Cc1ccccc1N1C(=O)c2sc3nc4c(c(=O)n3c2C1=O)CCC4`, the IC50 was 2.37 µM.
Turning to `Fc1ccccc1CSc1nc2ncccc2[nH]1`, the IC50 was 9.72 µM.
On to `COC(=O)C1=C(C)N=c2s/c(=C3\C(=O)Nc4ccccc43)c(=O)n2C1c1ccccc1` (configuration not stated), for which the IC50 is 5.94 µM.

The assay is the same for the next values; noted with them: HIV-1 RT RNase H enzymatic assay, inhibition, at 50 µM, stronger effect = higher value.
Regarding `CCCc1cc(C(=O)Nc2sc3c(c2C#N)CCC3)no1`, the inhibition (commonly the change of the read-out against control, counted positive when it falls) was determined as 92.6%.
For `CCCc1cc(C(N)=O)c(NC(=O)C2CCCO2)s1` (configuration not stated), the inhibition stood at 98.3%.
On the same count and under the same terms, for `CCOC(=O)CSc1nc2cc(C(=O)NCc3ccco3)ccc2c(=O)n1-c1ccc(F)cc1` the value was 91.8%; for `O=c1ccc2cc3c([nH]c4ccc(Br)cc43)oc-2c1O`, 88.5%.
Turning to `COc1ccc(C2C(C#N)=C(N)N3C(=C2C#N)Sc2ccccc23)cc1` (configuration not stated), the inhibition was found to be 92%.
Take `O=C(NCc1ccco1)c1cccnc1-c1nc2ccccc2s1`: the inhibition came to 93.7%.
Same read-out and setting: next, `CC(C)c1ccc(C2CC(=O)N3CN(C)CSC3=C2C#N)cc1` (configuration not stated): 86.9%; `CCCN(CCC)S(=O)(=O)c1ccc(C(=O)Nc2nnc(-c3cccc(OC)c3)o2)cc1`: 87.4%.
Take `CCOC(=O)CSc1nc2cc(C(=O)NCc3ccco3)ccc2c(=O)n1C1CCCCC1`: the inhibition turned out to be 89%.
For `Cc1cc(C)c2c(=O)n(CC(=O)NCCCN3CCOCC3)sc2n1`, the inhibition was found to be 80.5%.
Consider `Cc1cc(C)cc(OCC(=O)Nc2nonc2NC(=O)COc2cc(C)cc(C)c2)c1`, for which the inhibition amounted to 88%.
Regarding `O=C(Cn1c(=O)oc2cc(S(=O)(=O)N3CCCC3)ccc21)NC1CCCc2ccccc21` (configuration not stated), the inhibition came to 58.8%.
On to `C=CCn1c(N)c(C(=O)NCCC2=CCCCC2)sc1=S`, for which the inhibition came to 85.9%.
As for `CC1CCc2c(sc(NC(=O)c3ccc(Cn4cc(Br)cn4)o3)c2C(N)=O)C1` (configuration not stated), the inhibition worked out at 76.3%.
Regarding `O=C1c2sc3nc4ccccc4n3c2C(=O)N1c1ccccc1Cl`, the inhibition amounted to 98.9%.
Consider `COC(=O)c1cccc(N2C(=O)C(Cl)=C(N3CCOCC3)C2=O)c1`, for which the inhibition was 29.2%.
Take `O=c1c2ccccc2[se]n1-c1ccccc1`: the inhibition worked out at 85.5%.
Take `Cc1ccc2c(SCC(=O)NCc3ccco3)nc(-c3ccc(F)cc3)nc2c1`: the inhibition was 79.6%.
Regarding `COC(=O)c1ccc2c(=O)n(Cc3ccco3)c(SCC(=O)Nc3ccc(C)c(Cl)c3)nc2c1`, the inhibition was determined as 92.1%.
Take `COc1cc(OC)c(C2CC(=O)N3CN(c4ccccc4C)CSC3=C2C#N)cc1OC` (configuration not stated): the inhibition is 97.9%.
On to `Cc1nc(-c2cccc(S(=O)(=O)N3CCOCC3)c2)cs1`, for which the inhibition stood at 96.4%.
With `CC1(C)Cc2[nH]c(=S)c(C#N)cc2CO1`, the inhibition stood at 71.1%.
Turning to `CN(C)c1cccc(C(=O)Nc2cccc(F)c2)c1`, the inhibition amounted to 72%.
For `N#Cc1c(N)nc(SCC(=O)NC2CCCCC2)c(C#N)c1-c1ccc(Cl)cc1`, the inhibition was 64.2%.
Turning to `COc1ccc(Br)cc1C1CC(=O)N2CN(C)CSC2=C1C#N` (configuration not stated), the inhibition is 84.1%.
On the same count and under the same terms, for `CCOC(=O)Cc1csc(-n2sc3ccccc3c2=O)n1` the value was 96.4%; for `S=C(c1ccc(-c2ccccc2Cl)o1)N1CCOCC1`, 92.6%; for `CCC(C)c1ccc2oc(-c3ccc(NC(=O)c4ncn[nH]4)cc3)nc2c1` (configuration not stated), 94.2%.
With `C=CCc1c(C)[nH]c(=S)c(C#N)c1C`, the inhibition is 67.2%.
For the molecule `Cc1cccc(N2CCN(C(=O)Cn3sc4nc(C)cc(C)c4c3=O)CC2C)c1` (configuration not stated), the inhibition worked out at 86%.
For `c1ccc2[nH]c(SN3CCOCC3)nc2c1`, the inhibition came out at 74.2%.
For the molecule `CCCCCC#CCC#CCC#CCC#CCCCC(=O)O`, the inhibition stood at 98%.
For `O=C(NCCc1ccccc1)c1c(O)c2cccc3c2n(c1=O)CC3`, the inhibition stood at 67.7%.
Turning to `Cc1cc(C)c2oc(-c3ccc(Cl)c(NC(=O)c4ccc(C#N)cc4F)c3)nc2c1`, the inhibition stood at 91%.
Consider `O=C(NC(=O)c1ccc(Cl)cc1)Nc1cc(N2CCCCC2)ncn1`, for which the inhibition is 97.4%.
For the molecule `Cc1nc(C)c(C(=O)Nc2nc3c(C)cccc3s2)o1`, the inhibition was found to be 100%.
In the case of `O=C1CCCC(O)=C1C(C#Cc1ccccc1)C1=C(O)CCCC1=O`, the inhibition was 90.9%.
Regarding `c1ccc(-n2ncc3c2ncn2nc(-c4ccco4)nc32)cc1`, the inhibition amounted to 89.8%.
Same read-out and setting: next, `CCOC(=O)c1c(N)sn(-c2ccccc2C)c1=S`: 83.4%; `CC(C)(C)c1ccc(-c2nnc3sc(-c4ccncc4)nn23)cc1`: 96.3%.
Same read-out and setting: next, `c1ccc(-c2ccc(-c3ccccn3)nn2)nc1`: 52.4%.
Same read-out and setting: next, `C/C=C/CSc1nc2c(c(=O)[nH]c(=O)n2C)n1Cc1ccc(C)cc1`: 101%; `COc1ccc(-n2c(SCC(=O)N3CCCC3)nc3c([nH]c4ccccc43)c2=O)cc1`: 66.7%; `c1c2c(cc3sc(N4CCOCC4)nc13)OCO2`: 78.1%.
For the molecule `C=CCSc1nc2c(cnn2-c2ccc(C)c(C)c2)c(=O)[nH]1`, the inhibition amounted to 88.6%.
Regarding `c1ccc(Cc2nn3c(COc4ccccc4)nnc3s2)cc1`, the inhibition stood at 86.8%.
With `O=C(Nc1ccc(N2CCOCC2)cc1)c1ccc2nc(-c3ccco3)c(-c3ccco3)nc2c1`, the inhibition came to 93.4%.
On the same count and under the same terms, next, `C=CCn1c(SCC(=O)c2ccc(O)c(O)c2)nnc1-c1ccccc1OC`: 97.5%.
`COC(=O)c1ccc2c(=O)[nH]c(CN3c4ccccc4CC3C)nc2c1` (configuration not stated): the inhibition was determined as 62.3%.
For the molecule `CC(C)Cc1cc(C(=O)Nc2sc3c(c2C#N)CCCC3)no1`, the inhibition amounted to 94.6%.
On to `Cc1ccccc1OCc1nc(-c2ccc(NC(=O)c3ccc4c(c3)OCO4)cc2)no1`, for which the inhibition worked out at 90.2%.
On to `O=C(COc1ccc(Br)cc1)Nc1ccc(-c2nnc(-c3ccco3)o2)cc1`, for which the inhibition came to 95.1%.
On the same count and under the same terms, next, `COC(=O)N(c1ccccc1)P1(=S)OCCO1`: 81.9%; `COc1ccc(N2CSC3=C(C#N)C(c4cc(OC)ccc4OC)CC(=O)N3C2)c(OC)c1` (configuration not stated): 93.9%; `CCc1ccccc1N1CSC2=C(C#N)C(c3ccccc3F)CC(=O)N2C1` (configuration not stated): 98.5%.
With `COc1ccc(OC)c(S(=O)(=O)Nc2ccc(O)c(Sc3ncn[nH]3)c2)c1`, the inhibition came to 89.7%.
Regarding `Cc1ccc(-n2c(N)c(C(N)=O)sc2=S)cc1`, the inhibition is 83.3%.
For `CCOC(=O)c1sc(NC(=O)CSc2nnc(Cc3ccccc3)o2)c(C#N)c1C`, the inhibition is 98.3%.
`C=CCSc1nc2c(c(=O)[nH]c(=O)n2C)n1CC`: the inhibition was 72.8%.
On the same count and under the same terms, next, `Cc1ccc(-n2c(N)c(C(=O)N3CCOCC3)sc2=S)cc1`: 75.9%; `COc1cc(-c2nnc3sc(Cc4ccc(Cl)cc4)nn23)cc(OC)c1OC`: 96.4%.
Still for that read-out and setting: for `COc1ccc(C(=S)N(C)C)cc1OC` the value was 78.6%; for `COC(=O)c1ccccc1S(=O)(=O)N(Cc1cc2cc3c(cc2[nH]c1=O)OCO3)C1CCCCC1`, 90.3%; for `Cc1ccccc1N1C(=O)c2sc3nc4c(c(=O)n3c2C1=O)CCC4`, 98.7%.
Consider `COc1ccc(Cn2nnnc2C(c2cccnc2)N2CCN(c3ccc(O)cc3)CC2)cc1` (configuration not stated), for which the inhibition was determined as 43%.
`CCCc1nc2ccccc2c(=O)n1/N=C/c1ccc(O)c(O)c1`: the inhibition worked out at 97.3%.
On the same count and under the same terms, for `COc1ccc(S(=O)(=O)Nc2ccc(O)c3ccccc23)cc1` the value was 67.3%; for `CCOC(=O)C1=C(C)N=c2s/c(=C3\C(=O)Nc4ccccc43)c(=O)n2C1c1ccc2c(c1)OCO2` (configuration not stated), 83.8%.
For the molecule `Cc1cc(-c2nn3c(-c4ccccc4)nnc3s2)c2ccccc2n1`, the inhibition turned out to be 94.7%.
`CC1=C(SCCC#N)S/C(=C2\SC(C)=C(SCCC#N)S2)S1`: the inhibition is 97.5%.
Regarding `COc1ccc(CCNC(=O)c2c(O)c3cccc4c3n(c2=O)CC4)cc1`, the inhibition was found to be 67.1%.
With `CC(C)Sc1nc2sc3c(c2c2nnc(SCC(=O)NCc4ccco4)n12)CCCC3`, the inhibition was 85.1%.
On to `COc1ccccc1CNC(=O)c1cc2c(=O)n(C)c3ccccc3c2n1C`, for which the inhibition amounted to 86%.
With `C=CCn1c(SCC(=O)NC(=O)NCc2ccco2)nc2sc(C)c(C)c2c1=O`, the inhibition came out at 83.8%.
On the same count and under the same terms, next, `CCOC(=O)c1sc(=S)n2c1[nH]c(=O)c1ccc(C(=O)OC)cc12`: 99.7%; `Cn1ccnc1P(=S)(c1nccn1C)N1CCOCC1`: 60%.
As for `CCOc1ccc(-n2c(=O)c3c4c(sc3n(CC(=O)NCc3ccco3)c2=O)CCC4)cc1`, the inhibition turned out to be 89.9%.
Same read-out and setting: for `Cc1cccc(-c2nsc(SCC(=O)Nc3nccs3)n2)c1` the value was 97.3%.
On to `COc1cc(C(=O)Nc2oc(-c3ccccc3)c(-c3ccccc3)c2C#N)cc(OC)c1OC`, for which the inhibition amounted to 94%.
Turning to `Fc1ccc(-c2nnc3sc(-c4ccc5c(c4)OCO5)nn23)cc1`, the inhibition worked out at 72.3%.
The same measure, in the same setting: next, `N#Cc1c(SCC(=O)Nc2nccs2)nc2c(c1-c1ccco1)CCCC2`: 88.9%; `CN(C)c1ccc2c(c1)N=C(c1ccco1)OP2(=S)N1CCOCC1` (configuration not stated): 92.9%; `CCOC(=O)c1sc(NC(=O)CSc2n[nH]c(-c3ccccc3)n2)c(C#N)c1C`: 101%.
On to `CCN(Cc1ccccc1)S(=O)(=O)c1ccc(C(=O)Nc2nnc(-c3ccccc3OC)o2)cc1`, for which the inhibition was 95.8%.
Consider `Fc1ccccc1CSc1nc2ncccc2[nH]1`, for which the inhibition stood at 57.7%.
As for `COC(=O)C1=C(C)N=c2s/c(=C3\C(=O)Nc4ccccc43)c(=O)n2C1c1ccccc1` (configuration not stated), the inhibition was found to be 85.1%.
As for `Cc1cccc(C)c1NC(=O)CSCC(=O)c1ccc(O)c(O)c1`, the inhibition was 94.7%.
As to `COc1ccc(C2c3c(oc4ccc(Cl)cc4c3=O)C(=O)N2Cc2ccco2)cc1OC` (configuration not stated), the inhibition came out at 95.9%.
Same read-out and setting: for `O=c1c(O)c(-c2ccc(O)cc2O)oc2cc(O)cc(O)c12` the value was 92.8%; for `c1ccc(Cc2nn3c(Cn4cnc5ccccc54)nnc3s2)cc1`, 91.2%.
With `CCCc1nnc(NC(=O)CN2C(=O)c3ccccc3S2(=O)=O)s1`, the inhibition worked out at 75.7%.
Still for that read-out and setting: next, `Cc1cc(C(=O)CSc2nnc(-c3ccc(OC(F)F)cc3)o2)c(C)n1Cc1cccs1`: 74.6%; `Cc1cccc(NC(=O)Cn2c(C)c(C#N)c3ccccc32)c1C`: 89%.

Values taken from PubChem BioAssay AID652 (University of Pittsburgh Molecular Library Screening Center, 2007).
